Twelve compounds from patent US11634436B2, “Pyridine lactam compounds and methods of use thereof” (Genentech, Inc., priority 2018, dated 2023) can be followed below.

The structures appear in SMILES notation.

The target in the experiment is T1, human RIP1 kinase domain (2-375) (Homo sapiens, UniProt Q13546).
T1 construct: Purified human RIP1 kinase domain (2-375) (50 nM) derived from a baculovirus-infected insect cell expression system; made in house; host or cells: baculovirus-infected insect cells
T1 sequence (Q13546 2-375): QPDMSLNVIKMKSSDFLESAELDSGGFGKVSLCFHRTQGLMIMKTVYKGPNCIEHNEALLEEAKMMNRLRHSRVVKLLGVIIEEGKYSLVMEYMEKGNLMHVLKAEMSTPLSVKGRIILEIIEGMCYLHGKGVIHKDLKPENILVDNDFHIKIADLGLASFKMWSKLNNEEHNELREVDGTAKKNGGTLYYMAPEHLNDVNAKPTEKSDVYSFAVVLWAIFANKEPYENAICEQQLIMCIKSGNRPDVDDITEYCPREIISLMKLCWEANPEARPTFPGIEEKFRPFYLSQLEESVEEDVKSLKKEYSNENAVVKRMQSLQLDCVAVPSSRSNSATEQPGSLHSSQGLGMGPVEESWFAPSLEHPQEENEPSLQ
As to the kind of experiment: RIP1 kinase inhibition biochemical assay (Transcreener ADP, fluorescence polarization). As to conditions: tight-binding apparent inhibition constant (Ki app, Morrison equation); 50 nM enzyme, 50 uM ATP, 2 hours incubation. The protocol:
RIP1 Kinase Inhibition Assays (Biochemical Assay)
The compounds of the present invention were tested for their capacity to inhibit RIP1K activity as described below.
Enzyme assay: The ability of the receptor interacting protein kinase (RIPK1) to catalyze the hydrolysis of adenosine-5′-triphosphate (ATP) is monitored using the Transcreener ADP (adenosine-5′-diphosphate) assay (BellBrook Labs). Purified human RIP1 kinase domain (2-375) (50 nM) derived from a baculovirus-infected insect cell expression system is incubated with test compounds for 2 hours in 50 mM Hepes buffer (pH 7.5) containing 30 mM MgCl2, 1 mM dithiothreitol, 50 uM ATP, 0.002% Brij-35, and 0.5% dimethyl sulfoxide (DMSO). Reactions are quenched by the addition of 1× Bell Brooks Stop buffer B (20 mM Hepes (ph7.5), 40 mM ethylenediaminetetraacetic acid and 0.02% Brij-35) containing an additional 12 mM EDTA and 55 ug/mL ADP2 antibody and 4 nM ADP-AlexaFluor® 633 tracer. The tracer bound to the antibody is displaced by the ADP generated during the RIP1K reaction, which causes a decrease in fluorescence polarization that is measured by laser excitation at 633 nm with a FP microplate reader M1000. Fractional activity was plotted against test article concentration. Using Genedata Screener software (Genedata; Base1, Switzerland), the data were fit to the tight-binding apparent inhibition constant (Ki^app) Morrison equation [Williams, J. W. and Morrison, J. F. (1979) The kinetics of reversible tight-binding inhibition. Methods Enzymol 63: 437-67]. The following equation was used to calculate fractional activity and Ki^app:
[formula] where [E]T and [I]T are the total concentrations of active enzyme and test article, respectively.
Exemplary compounds of the present invention are provided in Table 1 along with their physiochemical characterization and in vitro RIP1 kinase inhibitory activity data. “Method” in the first column of each table refers to the synthetic method(s) used to prepare each compound as shown in the Examples above. In certain examples, chiral column retention times (min) are provided for certain stereoisomers. Unless otherwise specified, the stereochemistry shown in each structure represents relative configuration of a single stereoisomer, and absolute configuration (i.e., “R” and/or “S”) is arbitrarily assigned. In some embodiments, where the Method is described to include the separation of stereoisomers, a single stereoisomer of a compound of Table 1 is provided.
A general note: Polarisation of emitted light reports the rotation of a fluorescent probe.
With `C[C@H]1Oc2cccnc2N(C)C(=O)[C@H]1NC(=O)c1cc2n(n1)CCO[C@H]2c1ccccc1` [Example 6, (4S)-4-phenyl-N-[(2R,3S)-2,5-dimethyl-4-oxo-2,3-dihydropyrido[3,2-b][1,4]oxazepin-3-yl]-6,7-dihydro-4H-pyrazolo[5,1-c][1,4]oxazine-2-carboxamide], the Ki was 7 nM.

On to `[2H]C([2H])([2H])N1C(=O)[C@@H](NC(=O)c2cc3n(n2)CCO[C@H]3c2ccccc2)COc2cccnc21` [Example 7, (4S)-4-phenyl-N-[(3S)-4-oxo-5-(trideuteriomethyl)-2,3-dihydropyrido[3,2-b][1,4]oxazepin-3-yl]-6,7-dihydro-4H-pyrazolo[5,1-c][1,4]oxazine-2-carboxamide], for which the Ki was 28 nM.

As for `CCC(F)(F)n1ncc2cnc(C(=O)N[C@H]3COc4cccnc4N(C)C3=O)nc21` [Example 8, 1-(1,1-difluoropropyl)-N-[(3S)-5-methyl-4-oxo-2,3-dihydropyrido[3,2-b][1,4]oxazepin-3-yl]pyrazolo [3,4-d]pyrimidine-6-carboxamide], the Ki was 18 nM.

In the case of `CN1C(=O)[C@@H](NC(=O)c2cc3n(n2)CCO[C@H]3c2ccccc2)COc2cccnc21` (single isomer, unassigned) [Example 5], the Ki came to 19 nM.

On to `CN1C(=O)[C@@H](NC(=O)c2cc3n(n2)[C@@H](c2ccccc2)C[C@H]3F)COc2ccccc21` (single isomer, unassigned) [Example 10], for which the Ki came to 5400 nM.

For `CN1C(=O)[C@@H](NC(=O)c2cc3n(n2)[C@H](c2ccccc2)C[C@@H]3F)COc2cccnc21` (single isomer, unassigned) [Example 1], the Ki was determined as 5.2 nM.

Regarding `CN1C(=O)[C@@H](NC(=O)c2cc3n(n2)CCO[C@H]3c2ccccc2F)COc2cccnc21` (single isomer, unassigned) [Example 3], the Ki is 24 nM.

For the compound `CN1C(=O)[C@@H](NC(=O)c2cc3n(n2)[C@H](c2ccccc2)C[C@@H]3F)COc2ccccc21` (single isomer, unassigned) [Example 11], the Ki stood at 4.4 nM.

In the case of `CN1C(=O)[C@@H](NC(=O)c2ncc3cnn(C4CCCC4)c3n2)COc2cccnc21` [Example 9, 1-cyclopentyl-N-[(3S)-5-methyl-4-oxo-2,3-dihydropyrido[3,2-b][1,4]oxazepin-3-yl]pyrazolo [3,4-d]pyrimidine-6-carboxamide], the Ki was found to be 11 nM.

Consider `CC(C)n1ncc2cnc(C(=O)N[C@H]3COc4cccnc4N(C)C3=O)nc21` [Example 2, 1-isopropyl-N-[(3S)-5-methyl-4-oxo-2,3-dihydropyrido[3,2-b][1,4]oxazepin-3-yl]pyrazolo[3,4-d]pyrimidine-6-carboxamide], for which the Ki was 14 nM.

Consider `CCC(F)(F)n1ncc2cnc(C(=O)N[C@H]3COc4cccnc4N(C)C3=O)cc21` [Example 12, 1-(1,1-difluoropropyl)-N-[(3S)-5-methyl-4-oxo-2,3-dihydropyrido[3,2-b][1,4]oxazepin-3-yl]pyrazolo [4,3-c]pyridine-6-carboxamide], for which the Ki turned out to be 5 nM.

In the case of `CN1C(=O)[C@@H](NC(=O)c2cc3n(n2)CCO[C@@H]3c2ccccc2F)COc2cccnc21` (single isomer, unassigned) [Example 4], the Ki stood at 950 nM.
